Results taken from ChEMBL document CHEMBL3046870, “Inhibition of chloroplast electron transport reactions by trifluralin and diallate” (Plant Physiol, 1977).
Active and inactive are the calls of the source. The calls are words filed in the database; no cut-off is given here.

Experiments:
Spinacia oleracea [1] = assay: Inhibition of Spinacia oleracea (spinach) chloroplast electron transport chain-mediated DAD-induced cyclic phosphorylation at 25 uM by polarographically
Spinacia oleracea [2] = assay: Inhibition of Spinacia oleracea (spinach) chloroplast electron transport chain-mediated DAD-induced cyclic phosphorylation at 10 uM by polarographically
Spinacia oleracea [3] = assay: Inhibition of Spinacia oleracea (spinach) chloroplast electron transport chain-mediated rate of oxygen evolution per mg of chloroplast at 125 uM
Spinacia oleracea [4] = assay: Inhibition of Spinacia oleracea (spinach) chloroplast electron transport chain-mediated PMS-induced cyclic phosphorylation at 25 uM […]
Spinacia oleracea [5] = assay: Inhibition of Spinacia oleracea (spinach) chloroplast electron transport chain-mediated PMS-induced cyclic phosphorylation at 10 uM by polarographically
Spinacia oleracea [6] = assay: Inhibition of Spinacia oleracea (spinach) chloroplast electron transport chain-mediated rate of oxygen evolution per mg of chloroplast at 125 uM preincubated with DTT in dark condition for 5 min presence of 0.31 mM DTT
[7] = Inhibition of Spinacia oleracea (spinach) chloroplast electron transport chain-mediated noncyclic photophosphorylation assessed as 32P-orthophosphate incorporation into ATP […]
[8] = biological target: T1, Photosystem II protein D1 (Spinacia oleracea, UniProt P69560); assay: Inhibition of Spinacia oleracea (spinach) photosystem II assessed as electron flow from H20 to PDOX after 1 hr by polarographically
[9] = Inhibition of Spinacia oleracea (spinach) chloroplast electron transport chain-mediated PMS-induced cyclic phosphorylation […]
Spinacia oleracea [10] = assay: Inhibition of Spinacia oleracea (spinach) chloroplast electron transport chain-mediated PMS-induced cyclic phosphorylation at 50 uM […]
Spinacia oleracea [11] = assay: Inhibition of Spinacia oleracea (spinach) chloroplast electron transport chain-mediated DAD-induced cyclic phosphorylation at 200 uM by polarographically
Spinacia oleracea [12] = assay: Inhibition of Spinacia oleracea (spinach) chloroplast electron transport chain-mediated rate of oxygen evolution per mg of chloroplast at 62.5 uM in presence of 0.31 mM DTT
Spinacia oleracea [13] = assay: Inhibition of Spinacia oleracea (spinach) chloroplast electron transport chain-mediated light-induced ATP-Pi exchange assessed as inorganic phosphate release at 200 uM treated during activation stage
[14] = Inhibition of Spinacia oleracea (spinach) chloroplast electron transport chain assessed as electron flow from water to ferricyanide by polarographically
Spinacia oleracea [15] = assay: Inhibition of Spinacia oleracea (spinach) chloroplast electron transport chain-mediated rate of oxygen evolution per mg of chloroplast at 125 uM in presence of 0.31 mM DTT
[16] = biological target: T2, Photosystem I iron-sulfur center (Spinacia oleracea) (UniProt P10098); assay: Inhibition of Spinacia oleracea (spinach) photosystem I assessed as electron flow from ascorbate/DAD to methylviologen at >200 uM after 1 hr by polarographically
T2 sequence (whole entry): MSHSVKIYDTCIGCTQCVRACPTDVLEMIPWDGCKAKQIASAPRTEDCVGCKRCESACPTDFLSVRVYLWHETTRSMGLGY

Spinacia oleracea [17] = assay: Inhibition of Spinacia oleracea (spinach) chloroplast electron transport chain-mediated sulfhydryl-induced ATP-Pi exchange assessed as inorganic phosphate release at 200 uM treated during activation stage
[18] = Inhibition of Spinacia oleracea (spinach) chloroplast electron transport chain-mediated sulfhydryl-induced ATP-Pi exchange assessed as inorganic phosphate release
Spinacia oleracea [19] = assay: Inhibition of Spinacia oleracea (spinach) chloroplast electron transport chain-mediated DAD-induced cyclic phosphorylation at 50 uM by polarographically
[20] = biological target: Photosystem II protein D1 (Spinacia oleracea) (UniProt P69560); assay: Inhibition of Spinacia oleracea (spinach) photosystem II assessed as electron flow from H20 to PDOX at 300 uM after 1 hr by polarographically
Spinacia oleracea [21] = assay: Inhibition of Spinacia oleracea (spinach) chloroplast electron transport chain-mediated rate of oxygen evolution per mg of chloroplast at 62.5 uM
[22] = biological target: T2, Photosystem I iron-sulfur center (Spinacia oleracea); assay: Inhibition of Spinacia oleracea (spinach) photosystem I assessed as light-induced oxidation of Cyt-f at 100 uM added prior to illumination by dual wavelength spectrophotometer analysis
[23] = Inhibition of Spinacia oleracea (spinach) chloroplast electron transport chain-mediated light-induced ATP-Pi exchange assessed as inorganic phosphate release
Spinacia oleracea [24] = assay: Inhibition of Spinacia oleracea (spinach) chloroplast electron transport chain-mediated PMS-induced cyclic phosphorylation at 100 uM by polarographically
[25] = Inhibition of Spinacia oleracea (spinach) chloroplast electron transport chain-mediated Mg2+-ATPase activity assessed as inorganic phosphate release
Spinacia oleracea [26] = assay: Inhibition of Spinacia oleracea (spinach) chloroplast electron transport chain-mediated light-induced ATP-Pi exchange assessed as inorganic phosphate release at 200 uM
Spinacia oleracea [27] = assay: Inhibition of Spinacia oleracea (spinach) chloroplast electron transport chain-mediated sulfhydryl-induced ATP-Pi exchange assessed as inorganic phosphate release at 200 uM
Spinacia oleracea [28] = assay: Inhibition of Spinacia oleracea (spinach) chloroplast electron transport chain-mediated DAD-induced cyclic phosphorylation at 100 uM by polarographically
Spinacia oleracea [29] = assay: Inhibition of Spinacia oleracea (spinach) chloroplast electron transport chain-mediated light-induced ATP-Pi exchange assessed as inorganic phosphate release at 200 uM treated during incubation stage
[30] = biological target: Photosystem II protein D1 (Spinacia oleracea) (UniProt P69560); assay: Inhibition of Spinacia oleracea (spinach) photosystem II assessed as light-induced re-reduction of Cyt-f at 100 uM added prior to illumination by dual wavelength spectrophotometer analysis
[31] = biological target: T1, Photosystem II protein D1; assay: Inhibition of Spinacia oleracea (spinach) photosystem II mediated noncyclic photophosphorylation assessed as 32P-orthophosphate incorporation into ATP […]
Spinacia oleracea [32] = assay: Inhibition of Spinacia oleracea (spinach) chloroplast electron transport chain-mediated sulfhydryl-induced ATP-Pi exchange assessed as inorganic phosphate release at 200 uM treated during incubation stage
Spinacia oleracea [33] = assay: Inhibition of Spinacia oleracea (spinach) chloroplast electron transport chain-mediated PMS-induced cyclic phosphorylation at 200 uM […]
Spinacia oleracea [34] = assay: Inhibition of Spinacia oleracea (spinach) chloroplast electron transport chain-mediated DAD-induced cyclic phosphorylation up to 200 uM by polarographically in absence of DCMU in red light
[35] = Inhibition of Spinacia oleracea (spinach) chloroplast electron transport chain-mediated noncyclic electron flow using methylviologen as acceptor by polarographically
[36] = biological target: T2, Photosystem I iron-sulfur center (Spinacia oleracea); assay: Inhibition of Spinacia oleracea (spinach) photosystem I assessed as light-induced oxidation of Cyt-f at 200 uM added prior to illumination by dual wavelength spectrophotometer analysis
Spinacia oleracea [37] = assay: Inhibition of Spinacia oleracea (spinach) chloroplast electron transport chain-mediated DAD-induced cyclic phosphorylation up to 200 uM by polarographically in absence of DCMU in white light
Spinacia oleracea [38] = assay: Inhibition of Spinacia oleracea (spinach) chloroplast electron transport chain-mediated DAD-induced cyclic phosphorylation up to 200 uM by polarographically in presence of ascorbate in red light
Spinacia oleracea [39] = assay: Inhibition of Spinacia oleracea (spinach) chloroplast electron transport chain-mediated rate of oxygen evolution per mg of chloroplast at 62.5 uM preincubated with DTT in dark condition for 5 min presence of 0.31 mM DTT
Spinacia oleracea [40] = assay: Inhibition of Spinacia oleracea (spinach) chloroplast electron transport chain assessed as residual activity of noncyclic electron flow using methylviologen as acceptor up to 300 uM by polarographically relative to control
[41] = biological target: Photosystem II protein D1 (Spinacia oleracea) (UniProt P69560); assay: Inhibition of Spinacia oleracea (spinach) photosystem II mediated noncyclic photophosphorylation assessed as 32P-orthophosphate incorporation into ATP up to 300 uM by polarographically
Spinacia oleracea [42] = assay: Inhibition of Spinacia oleracea (spinach) chloroplast electron transport chain assessed as residual electron flow from water to ferricyanide up to 300 uM by polarographically relative to control
[43] = biological target: T2, Photosystem I iron-sulfur center (Spinacia oleracea); assay: Inhibition of Spinacia oleracea (spinach) photosystem I mediated noncyclic photophosphorylation assessed as 32P-orthophosphate incorporation into ATP up to 300 uM […]
[44] = biological target: Photosystem II protein D1 (Spinacia oleracea) (UniProt P69560); assay: Inhibition of Spinacia oleracea (spinach) photosystem II assessed as light-induced re-reduction of Cyt-f at 200 uM added prior to illumination by dual wavelength spectrophotometer analysis

Compound	inhibition (Spinacia oleracea [1]) [%]	inhibition (Spinacia oleracea [2]) [%]	inhibition (Spinacia oleracea [4]) [%]	inhibition (Spinacia oleracea [5]) [%]	IC50 [7] [µM]	inhibition (Spinacia oleracea [10]) [%]	inhibition (Spinacia oleracea [11]) [%]	Activity (Spinacia oleracea [12]) [µmol/h]	inhibition (Spinacia oleracea [13])	IC50 [14] [µM]	inhibition [16]	inhibition (Spinacia oleracea [17])	IC50 [18] [µM]	inhibition (Spinacia oleracea [19]) [%]	Activity (Spinacia oleracea [21]) [µmol/h]	IC50 [23] [µM]	inhibition (Spinacia oleracea [24]) [%]	IC50 [25] [µM]	inhibition (Spinacia oleracea [26])	inhibition (Spinacia oleracea [27])	other results
CC(C)N(C(=O)SC/C(Cl)=C/Cl)C(C)C [Diallate]	32	8	25	8	25	54	32	97	Active	20	inactive	Active	20	48	105	20	52	65	Active	Active	Activity (Spinacia oleracea [3]): 40 µmol/h; Activity (Spinacia oleracea [6]): 30 µmol/h; IC50 [8]: 75 µM; IC50 [9]: 50 µM; Activity (Spinacia oleracea [15]): 30 µmol/h; inhibition [20]: Active; inhibition [22]: inactive; inhibition (Spinacia oleracea [28]): 20%; inhibition (Spinacia oleracea [29]): Active; inhibition [30]: Active; IC50 [31]: 100 µM; inhibition (Spinacia oleracea [32]): Active; inhibition (Spinacia oleracea [33]): 66%
CCCN(CCC)c1c([N+](=O)[O-])cc(C(F)(F)F)cc1[N+](=O)[O-] [TRIFLURALIN]	24	6	16	4	50	18	6	64	Active	10	inactive	Active	20	28	62	20	16	90	Active	Active	inhibition (Spinacia oleracea [34]): Active; IC50 [35]: 10 µM; inhibition [36]: inactive; inhibition (Spinacia oleracea [37]): Active; Imax [20]: 50%; inhibition (Spinacia oleracea [38]): Active; Activity (Spinacia oleracea [39]): 60 µmol/h; Activity (Spinacia oleracea [40]): 10%; inhibition (Spinacia oleracea [28]): 17%; inhibition [41]: inactive; Activity (Spinacia oleracea [42]): 10%; inhibition [43]: inactive; inhibition (Spinacia oleracea [29]): Active; inhibition [44]: Active; inhibition (Spinacia oleracea [32]): Active; inhibition (Spinacia oleracea [33]): 20%
